These results are taken from patent US20120119081A1, “INSECT-BASED MODEL FOR PHARMACO-KINETIC STUDIES” (priority 2009, published 2012).

The nature of data set [1]: Locust hemolymph kinetics after injection into the hemolymph (LCMS). On the procedure: The insects may be obtained from local suppliers or bred in house. The grasshoppers were reared under crowded conditions at 28° C. and a 12:12 dark:light photocycle and fed fresh grass and bran. Before experiments the grasshoppers were fed ecologically cultivated wheat for two weeks. Animals used are adult males (in some experiments females) between two to four weeks after adult emergence. Test compounds are administrated into the hemolymph by use of a Hamilton syringe and inserting the needle between two abdominal terga or administered intraintestinal by use of a catheter or a steel probe. At various time points after administration hemolymph samples are taken for quantitative determination of drug concentration in the hemolymph. The samples are snap-frozen and stored until analyses. Drug concentration is analysed by HPLC, LC/MSMS or other methods. In studies of drug retention various organs e.g. heart, fat bodies and brain are dissected at various times after drug administration. The tissues are washed, snap-frozen and stored until analyses. At analyses the tissues are homogenized/vortexed/sonicated and centrifuged. The drug concentration in the tissues is determined as above.
(§1) 40 ul of an approximately 5 mg/ml solution of quinidine was injected into the hemolymph of Locusts (Locusta migratoria). The test compound was administered by using a Hamilton syringe. At 5, 15, 45, 120, and 360 minutes after administration (10 ul) hemolymph was collected from each locust with a calibrated capillary tube by puncturing the ventral membrane between the head and the thorax and immediately blown into a tube containing 40 ul aqua dest and 100 ul of acetonitrile. Each sample was centrifuged for 5 minutes (10 000 g at 4° C.) and 100 ul of the supernatants were transferred to new test tubes for LCMS analysis.
(§2) The test compound was administered by using a Hamilton syringe. At 5, 15, 45, 120, and 360 minutes after administration (10 ul) hemolymph was collected from each locust with a calibrated capillary tube by puncturing the ventral membrane between the head and the thorax and immediately blown into a tube containing 40 ul aqua dest and 100 ul of acetonitrile. Each sample was centrifuged for 5 minutes (10 000g at 4° C.) and 100 ul of the supernatants were transferred to new test tubes for LCMS analysis.
as §1, with “caffeine” for “quinidine”, “000g” for “000 g”
as §2
Mianserin was injected into the hemolymph of Locusts (Locusta migratoria). The administered volume was 40 ul (administered by using a Hamilton syringe) at a concentration of 8.8 mg/ml. At 5, 15 and 45 minutes after administration (2×20 ul) hemolymph was collected from the locusts with a calibrated capillary tube by puncturing the ventral membrane between the head and the thorax and immediately blown into a tube containing 60 ul aqua dest and 200 ul of acetonitrile.

The conditions of data set [2]: cited from earlier work; for Volume of distribution (in words): human / vertebrate, relative statement.
For data set [3] the following is noted: cited from earlier work.
Where [4] appears, read: Locusta migratoria, in vivo, 0.4 mg per locust (approximately).
Where [5] appears, read: locust, after intrahemolymphic administration, comparison between test compounds.
[6] abbreviates: Locusta migratoria, in vivo, 0.2 mg per locust (approximately).

Consider `O=C1CC2(CCCC2)CC(=O)N1CCCCN1CCN(c2ncccn2)CC1` [buspirone], for which, in data set [1] (setting [4]), the concentration at 5 min is 10700 ng/mL, the concentration at 15 min is 6500 ng/mL and the concentration at 45 min amounted to 3800 ng/mL. For the same molecule, the “Hemolymph elimination / clearance (in words)” value in data set [1] (setting [5]) is reported as “increased elimination similar to haloperidol”.
Regarding `Cn1c(=O)c2c(ncn2C)n(C)c1=O` [caffeine], in data set [2], the “Volume of distribution (in words)” value is on record as “much lower volume of distribution compared to propranolol”. Besides, in data set [1] (setting [6]), the concentration at 5 min was determined as 9280 ng/mL, the concentration at 15 min is 9010 ng/mL, the concentration at 45 min was found to be 8780 ng/mL and the concentration at 120 min came out at 6820 ng/mL. In addition, the concentration at 360 min in data set [1] (setting [6]) was 5500 ng/mL. Also, in data set [1] (setting [4]), the concentration at 5 min worked out at 29000 ng/mL, the concentration at 15 min came to 24000 ng/mL and the concentration at 45 min turned out to be 23000 ng/mL. For the same molecule, in data set [1] (setting [5]), the “Hemolymph elimination / clearance (in words)” value is “non dose dependent hemolymph clearance”.
In the case of `CN(C)C(=O)C(CCN1CCC(O)(c2ccc(Cl)cc2)CC1)(c1ccccc1)c1ccccc1` [loperamide], in data set [1] (setting [4]), the concentration at 5 min amounted to 5600 ng/mL, the concentration at 15 min was 3000 ng/mL and the concentration at 45 min came out at 1700 ng/mL. Further, the “Solubility (in words)” value in data set [3] is listed as “less soluble”.
As for `CC(C)NCC(O)COc1cccc2ccccc12` (stereo not drawn) [propranolol], the “Volume of distribution (in words)” value in data set [2] was “much larger volume of distribution”. In addition, the “Half life (in words)” value in data set [2] (human, compared to atenolol) is reported as “much shorter half life”.
With `O=c1n(CCCN2CCN(c3cccc(Cl)c3)CC2)nc2ccccn12` [trazodone], in data set [1] (in vivo), the “Hemolymph elimination / clearance (in words)” value was “stable for 15 minutes”.
